# Laboratory results from patent US7612107B2, “Treatment and inhibition of disease conditions using flexible heteroarotinoids” (The Board of Regents of the University of Oklahoma, priority 2005, dated 2009).
# Like-named read-outs stand apart in the source and are kept apart here.
# Assays:
# Raldh2-/- embryos = settings: for No. of −/− rescued / No. of −/− unrescued: E10.25; for Teratogenesis: mouse, in vivo, po
# Procedure: Briefly, retinoids were dissolved in corn oil and administered orally to timed-pregnant Raldh2_/_mice at 12-h intervals on E7.25, E7.75, and E8.25. Dosages varied from 0.025 to 25 mg/kg. At E10.25, embryos were analyzed morphologically to determine whether Raldh2_/_embryos were rescued or whether wild-type embryos had suffered teratogenesis. Detection of embryonic RA was performed in situ in embryos carrying the RARE-lacZ RA-reporter gene by staining for beta-galactosidase activity for 10 h (45).
# A mouse model that lacks retinaldehyde dehydrogenase (Raldh2) due to null mutations was used to test the ability of Flex-Hets to substitute for retinoic acid (RA) and induce birth defects. […] We examined the relative ability of all-trans-RA, 9-cis-RA, receptor-specific synthetic retinoids and retinoic acid receptor independent Flex-Hets to rescue the Raldh2_/_embryonic lethal phenotype.
# ovarian cancer cells = assay: Microarray analysis of gene expression in SHetA2-treated ovarian cancer cells; type: cell-based, Homo sapiens
# Procedure: Microarray analysis was conducted to determine specific disease causing genes which were expressed at higher (>1 fold) or lower (<1 fold) levels than normal in ovarian cancer cells treated with SHetA2 (see Table 6).
# [1] = tested on: EAhy.926 endothelial cells; assay: Growth/viability of endothelial cells versus ovarian cancer cell lines; type: cell-based; settings: 24 hours
# Procedure: The graph on the left provides quantification of the endothelial branches for each treatment dose.
# The increased thickness of the vessels at 1 μM and the increasing proportions of solitary clumps of cells at 5 and 10 μM indicate that SHetA2 is inhibiting endothelial cell migration. To determine if this anti-angiogenic activity was due to growth inhibition or cytotoxicity. The viability of the endothelial cells treated with SHetA2 for 24 hours was evaluated. […] This confirms the therapeutic ratio observed in previous studies.
# [2] = Genbank AI358954, Neuromuscular Diseases
structure (smiles),measurement,setting,value
CC1(C)CC(C)(C)c2cc(NC(=S)Nc3ccc([N+](=O)[O-])cc3)ccc2S1 [SHetA2],Rescue of Raldh2−/− embryos (in words),Raldh2-/- embryos; 2.5 mg/kg,no rescue
same,Rescue of Raldh2−/− embryos (in words),Raldh2-/- embryos; 10 or 25 mg/kg,no rescue
same,No. of −/− rescued,Raldh2-/- embryos; Dose 2.5 mg/kg oral,0
same,No. of −/− unrescued,Raldh2-/- embryos; Dose 2.5 mg/kg oral,1
same,No. of −/− rescued,Raldh2-/- embryos; Dose 10 mg/kg oral,0
same,No. of −/− unrescued,Raldh2-/- embryos; Dose 10 mg/kg oral,5
same,No. of −/− rescued,Raldh2-/- embryos; Dose 25 mg/kg oral,0
same,No. of −/− unrescued,Raldh2-/- embryos; Dose 25 mg/kg oral,1
same,Teratogenesis,Raldh2-/- embryos; 2.5 mg/kg,0
same,Teratogenesis,Raldh2-/- embryos; 10 mg/kg,0
same,Teratogenesis,Raldh2-/- embryos; 25 mg/kg,0
same,Fold: Putative c-Myc-responsive (RCL),"ovarian cancer cells; Genbank AA523444, Cancer",0.41 Fold
same,"Fold: Myeloidlymphoid or mixed-lineage leukemia (trithorax (Drosophila) homolog); translocated to, 4 (HGC6.3)","ovarian cancer cells; Genbank AB016902.2, Cancer",5.07 Fold
same,Fold: Vascular endothelial growth factor (VEGF),ovarian cancer cells; Genbank AF022375.1,0.47 Fold
same,"Fold: METH1 protein (METH1), contain a repeated amino acid motif homologous to the anti-angiogenic type 1 repeats of thromospondin-1 (TSP1)",ovarian cancer cells; Genbank AF060152.1,0.39 Fold
same,Fold: EHT protein,"ovarian cancer cells; Genbank AF068266.1, Cancer",2.80 Fold
same,Fold: Familial Mediterranean fever locus region,"ovarian cancer cells; Genbank AF098968.1, Autoimmune Diseases",0.30 Fold
same,Fold: Myeloidlymphoid leukemia 2 (MLL2),"ovarian cancer cells; Genbank AF105279.1, Cancer",0.31 Fold
same,Fold: Glypican-6 (GPC6),ovarian cancer cells; Genbank AF111178.1,2.07 Fold
same,"Fold: Hemochromatosis splice variant 495-2314del, Iron Storage Disorder","ovarian cancer cells; Genbank AF144243.1, Storage and Metabolism Deficiencies",3.01 Fold
same,Fold: BAGE2 antigen (BAGE2),"ovarian cancer cells; Genbank AF218570.1, Cancer",0.34 Fold
same,Fold: Prothymosin alpha (PTMA),"ovarian cancer cells; Genbank AF257099, Polycystic Kidney Disease",2.60 Fold
same,"Fold: Deleted in lymphocytic leukemia, 2/DEF = Homo sapiens BCMS-upstream neighbor (BCMSUN)","ovarian cancer cells; Genbank AF264787.1, Cancer",0.33 Fold
same,"Fold: Deleted in lymphocytic leukemia, BCMS-upstream neighbor (BCMSUN) (DLEU2)","ovarian cancer cells; Genbank AF264787.1, Cancer",0.40 Fold
same,Fold: PNAS-128 in leukemia,"ovarian cancer cells; Genbank AF277186.1, Cancer",0.36 Fold
same,Fold: BAM in multiple myeloma,"ovarian cancer cells; Genbank AF455755.1, Cancer",3.05 Fold
same,Fold: Cervical cancer suppressor gene-4 protein (HCCS-4),"ovarian cancer cells; Genbank AF465843.1, Cancer",2.06 Fold
same,"Fold: FLJ23538 fis, highly similar to BETA2 Human MEN1(Multiple Endocrine Neoplasia) region clone epsilonbeta (BETA2)","ovarian cancer cells; Genbank AI042152, Cancer",0.31 Fold
same,"Fold: ESTs, Moderately similar to S72399 ras-homolog GTPase rab28 isoform S","ovarian cancer cells; Genbank AI080106, Cancer",7.75 Fold
same,Fold: Prostate cancer associated protein 5 (PCANAP5),"ovarian cancer cells; Genbank AI299378, Cancer",0.23 Fold
same,"Fold: ESTs, Weakly similar to DRPL_Human Atrophin-1 (DRPL) in Huntington's disease (HD) and dentatorubral and pallidoluysian atrophy (DRPLA) dentatorubral-pallidoluysian atrophy",ovarian cancer cells; [2],2.52 Fold
same,"Fold: ESTs, Weakly similar to DRPL_Human Atrophin-1 (DRPL) in dentatorubral-pallidoluysian atrophy",ovarian cancer cells; [2],2.52 Fold
same,Fold: B-cell CLLlymphoma 3 (BCL3),"ovarian cancer cells; Genbank AI829875, Cancer",2.58 Fold
same,"Fold: Lipoma cell line Li-538SV40 ectopic sequence from HMGI-C fusion mRNA, 3 sequence (LI)","ovarian cancer cells; Genbank AI990940, Cancer",0.47 Fold
same,"Fold: Butyrophilin, subfamily 3, member A2 (BTN3A2) milk protein","ovarian cancer cells; Genbank AI991252, Autoimmune Diseases",2.31 Fold
same,"Fold: Disintegrin-like and metalloprotease (reprolysin type) with thrombospondin type 1 motif, highly similar to Homo sapiens metalloproteinase with thrombospondin type 1 motifs (ADAMTS1)",ovarian cancer cells; Genbank AK023795.1,0.43 Fold
same,"Fold: 3-hydroxyisobutyrate dehydrogenase, mitochondrial precursor",ovarian cancer cells; Genbank AK025558,0.00 Fold
same,Fold: NICE-5 protein,"ovarian cancer cells; Genbank AW779859, Cancer",0.48 Fold
same,"Fold: ASPLTFE3 type 2 fusion protein, ASPLTFE3 type 1 fusion protein mRNA in Sarcoma","ovarian cancer cells; Genbank AY034077.1, Cancer",0.46 Fold
same,"Fold: RASSF3 isoform A, putative tumor suppressor","ovarian cancer cells; Genbank AY062002.1, Cancer",2.88 Fold
same,"Fold: A kinase (PRKA) anchor protein 1, clone MGC: 1807",ovarian cancer cells; Genbank BC000729.1,2.00 Fold
same,"Fold: IMAGE: 3050107 mRNA, TBC1 domain family","ovarian cancer cells; Genbank BC001525, Cancer",0.67 Fold
same,"Fold: v-Myc avian myelocytomatosis viral related oncogene, neuroblastoma derived (MYCN)","ovarian cancer cells; Genbank BC002712.1, Cancer",3.99 Fold
same,Fold: aarF domain containing kinase 4,ovarian cancer cells; Genbank BC013114,2.30 Fold
same,"Fold: Similar to vitelliform macular dystrophy (Best disease, bestrophin)","ovarian cancer cells; Genbank BC041664.1, Eye Diseases",0.26 Fold
same,Fold: Thrombospondin 1 (THBS1),ovarian cancer cells; Genbank BE999967,0.42 Fold
same,Fold: SNRPN upstream reading frame (SNURF) in Prader-Willi and Angelman syndrome,"ovarian cancer cells; Genbank BF114870, Neuromuscular Diseases",0.39 Fold
same,"Fold: Novel MAFF (v-maf musculoaponeurotic fibrosarcoma (avian) oncogene family, protein F) LIKE protein","ovarian cancer cells; Genbank Cluster Incl. AL021977, Cancer",0.47 Fold
same,Fold: Butyrophilin (BTF3) - Milk Fat,"ovarian cancer cells; Genbank Cluster Incl. U90548, Autoimmune Diseases",2.15 Fold
same,"Fold: Facioscapulohumeral muscular dystrophy (FSHD) gene region, D4Z4 tandem repeat unit","ovarian cancer cells; Genbank D38024, Skeletal Diseases",2.43 Fold
same,"Fold: FYN oncogene related to SRC, FGR and YES, c-syn protooncogene","ovarian cancer cells; Genbank M14333.1, Cancer",0.44 Fold
same,Fold: Nephropontin inhibits urine crystals - kidney stones,"ovarian cancer cells; Genbank M83248.1, Storage and Metabolism Deficiencies",2.34 Fold
same,"Fold: FYN oncogene related to SRC, FGR and YES (FYN)","ovarian cancer cells; Genbank N20923, Cancer",0.13 Fold
same,"Fold: Sarcoglycan, gamma (35 kD dystrophin-associated glycoprotein) (Muscular Dystrophy)","ovarian cancer cells; Genbank NM_000231.1, Skeletal Diseases",0.04 Fold
same,Fold: Retinitis pigmentosa GTPase regulator (RPGR),"ovarian cancer cells; Genbank NM_000328.1, Eye Diseases",0.47 Fold
same,Fold: UDP-galactose-4-epimerase in epimerase-deficiency galactosemia,"ovarian cancer cells; Genbank NM_000403, Storage and Metabolism Deficiencies",0.66 Fold
same,"Fold: Sulfite oxidase (SUOX), nuclear gene encoding mitochondrial protein",ovarian cancer cells; Genbank NM_000456.1,2.11 Fold
same,"Fold: Galactosamine (N-acetyl)-6-sulfate sulfatase in Morquio syndrome, mucopolysaccharidosis type IVA","ovarian cancer cells; Genbank NM_000512, Storage and Metabolism Deficiencies",0.52 Fold
same,Fold: Regulatory factor X-associated protein (RFXAP)in bare lymphocyte syndrome,"ovarian cancer cells; Genbank NM_000538.1, Autoimmune Diseases",0.41 Fold
same,Fold: Endothelial cell growth factor 1 (platelet-derived)/Thymidine phosphorylase,ovarian cancer cells; Genbank NM_001953,0.42 Fold
same,Fold: Figroblast growth factor 2 (basic)(FGF2),ovarian cancer cells; Genbank NM_002006.1,0.35 Fold
same,Fold: Promyelocytic leukemia (PML),"ovarian cancer cells; Genbank NM_002675.1, Cancer",2.76 Fold
same,Fold: Transglutaminase 4 (prostate),"ovarian cancer cells; Genbank NM_003241, Cancer",0.24 Fold
same,Fold: Thrombospondin 4,ovarian cancer cells; Genbank NM_003248,0.58 Fold
same,Fold: Thromospondin 4 (THBS4),ovarian cancer cells; Genbank NM_03248.1,2.58 Fold
same,"Fold: Dysferlin, limb girdle muscular dystrophy 2B (autosomal recessive) (DYSF)","ovarian cancer cells; Genbank NM_003494.1, Skeletal Diseases",2.16 Fold
same,Fold: Peroxisomal biogenesis factor 3 (PEX3),"ovarian cancer cells; Genbank NM_003630.1, Autoimmune Diseases",0.43 Fold
same,Fold: Fibroblast growth factor 18 (FGF18),ovarian cancer cells; Genbank NM_003862.1,2.75 Fold
same,"Fold: Dystrophin (muscular dystrophy, Duchenne and Becker types), dystrophin Dp40 isoform (DMD)","ovarian cancer cells; Genbank NM_004019.1, Skeletal Diseases",2.76 Fold
same,"Fold: Vitelliform macular dystrophy (Best disease, bestrophin) (VMD2)","ovarian cancer cells; Genbank NM_004183.1, Eye Diseases",0.28 Fold
same,"Fold: Smcx homolog, X chromosome (mouse) in nonsyndromic X-linked mental retardation","ovarian cancer cells; Genbank NM_004187, Neuromuscular Diseases",0.61 Fold
same,Fold: Enhancer of zeste (Drosophila) homolog 2 (EZH2) (USP14),"ovarian cancer cells; Genbank NM_004456.1, Cancer",0.47 Fold
same,Fold: Peroxisomal biogenesis factor 14 (PEX14) in peroxisome biogenesis disorders,"ovarian cancer cells; Genbank NM_004565.1, Neuromuscular Diseases",2.06 Fold
same,"Fold: ATP-binding cassette, sub-family D (ALD), member 2 (ABCD2) in X-linked adrenoleukodystrophy","ovarian cancer cells; Genbank NM_005164.1, Neuromuscular Diseases",2.71 Fold
same,Fold: B-cell CLLlymphoma 3 (BCL3),"ovarian cancer cells; Genbank NM_005178.1, Cancer",2.05 Fold
same,"Fold: Neuroblastoma, suppression of tumorigenicity 1 (NBL1),","ovarian cancer cells; Genbank NM_005380.1, Cancer",3.07 Fold
same,"Fold: ATP-binding cassette, sub-family B (MDRTAP), member 6 (ABCB6), nuclear gene encoding mitochondrial protein",ovarian cancer cells; Genbank NM_005689.1,0.46 Fold
same,Fold: N-cym protein,"ovarian cancer cells; Genbank NM_006316, Cancer",2.38 Fold
same,Fold: Translocase of inner mitochondrial membrane 44 (yeast) homolog (TIM44),ovarian cancer cells; Genbank NM_006351.1,0.50 Fold
same,"Fold: Butyrophilin, subfamily 3, member A3 (BTN3A3)","ovarian cancer cells; Genbank NM_006994.2, Autoimmune Diseases",2.04 Fold
same,Fold: Keratocan (KERA) involved in cornea plana,"ovarian cancer cells; Genbank NM_007035.2, Eye Diseases",0.50 Fold
same,Fold: Disintegrin-like and metalloprotease (reprolysin type) with thrombospondin type 1 motif (ADAMTS5),ovarian cancer cells; Genbank NM_007038.1,0.23 Fold
same,Fold: Angiopoietin-like 2 (ANGPTL2),ovarian cancer cells; Genbank NM_012098.1,2.16 Fold
same,Fold: Nasopharyngeal carcinoma susceptibility protein (LZ16),"ovarian cancer cells; Genbank NM_013275.1, Cancer",0.41 Fold
same,Fold: Trichorhinophalangeal syndrome I gene (TRPS1),"ovarian cancer cells; Genbank NM_014112.1, Skeletal Diseases",0.36 Fold
same,Fold: Rhabdoid tumor deletion region protein 1 (RTDR1),"ovarian cancer cells; Genbank NM_014433.1, Cancer",2.20 Fold
same,"Fold: Amyotrophic lateral sclerosis 2 (juvenile) chromosome region, candidate 3 (ALS2CR3)","ovarian cancer cells; Genbank NM_015049.1, Neuromuscular Diseases",0.41 Fold
same,"Fold: Chromosome 5 open reading frame 4 (C5ORF4), putative tumor suppressor","ovarian cancer cells; Genbank NM_016348.1, Cancer",2.76 Fold
same,Fold: Niban protein (NIBAN) (Renal carcinogenesis),"ovarian cancer cells; Genbank NM_022083.1, Cancer",0.21 Fold
same,"Fold: RNA binding motif protein 5, putative tumor suppressor (LUCA15)","ovarian cancer cells; Genbank U23946.1, Cancer",0.43 Fold
same,"Fold: A kinase anchor protein S-AKAP84 mRNA, nuclear gene encoding mitochondrial protein",ovarian cancer cells; Genbank U34074.1,2.14 Fold
same,Fold: Unknown protein mRNA within the p53 intron 1,"ovarian cancer cells; Genbank U58658.1, Cancer",0.45 Fold
same,Growth inhibition of endothelial cells compared with A2780 and OVCAR-3,[1],much less growth inhibited
